The target of this assay is T1, Calpain I (Homo sapiens, UniProt P07384).
T1 construct: made in house
T1 sequence (P07384 1-714): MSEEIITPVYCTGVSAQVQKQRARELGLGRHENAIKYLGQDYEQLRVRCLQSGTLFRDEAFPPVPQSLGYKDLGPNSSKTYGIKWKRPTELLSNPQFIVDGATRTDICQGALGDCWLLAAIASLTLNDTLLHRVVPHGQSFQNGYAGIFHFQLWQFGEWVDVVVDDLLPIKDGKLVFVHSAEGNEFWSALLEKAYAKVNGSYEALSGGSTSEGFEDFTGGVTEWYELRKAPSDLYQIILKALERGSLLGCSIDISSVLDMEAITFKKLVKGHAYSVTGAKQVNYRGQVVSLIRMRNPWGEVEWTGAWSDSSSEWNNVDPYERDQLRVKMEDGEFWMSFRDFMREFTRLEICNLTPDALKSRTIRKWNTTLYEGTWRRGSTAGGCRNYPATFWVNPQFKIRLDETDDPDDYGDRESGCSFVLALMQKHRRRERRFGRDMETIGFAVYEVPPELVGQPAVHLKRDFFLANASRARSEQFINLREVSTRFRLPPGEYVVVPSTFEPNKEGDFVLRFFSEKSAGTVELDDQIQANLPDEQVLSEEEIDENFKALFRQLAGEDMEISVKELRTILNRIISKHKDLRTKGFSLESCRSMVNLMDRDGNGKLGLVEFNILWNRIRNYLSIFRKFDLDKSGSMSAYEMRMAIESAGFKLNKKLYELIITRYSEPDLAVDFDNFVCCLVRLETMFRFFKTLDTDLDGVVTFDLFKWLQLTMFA
T1 sequence (P04632 1-268 partner): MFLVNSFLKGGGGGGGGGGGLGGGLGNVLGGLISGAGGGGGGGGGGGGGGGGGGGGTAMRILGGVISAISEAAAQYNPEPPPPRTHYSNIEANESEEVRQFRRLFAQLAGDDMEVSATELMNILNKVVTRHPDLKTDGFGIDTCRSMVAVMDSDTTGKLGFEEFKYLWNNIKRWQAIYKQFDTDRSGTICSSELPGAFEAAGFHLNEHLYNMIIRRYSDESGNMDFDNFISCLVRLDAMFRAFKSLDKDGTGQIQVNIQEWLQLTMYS
Kind of assay: Inhibition of calpain I activity (Succ-Leu-Tyr-MNA substrate hydrolysis, fluorescence). Type of assay: biochemical. The settings on record: calpain I, 0.2 mM Succ-Leu-Tyr-MNA, pH 7.5, * mixture of diastereomers, a,b single diastereomers, read-out: IC50. The method, then:
To evaluate inhibitory activity, stock solutions (40 times concentrated) of each compound to be tested were prepared in 100% anhydrous DMSO and […] of each inhibitor preparation were aliquoted into each of three wells of a 96-well plate. Calpain I, prepared by a modification of the method of W. J. Lee et al. (Biochem. […] To start the reaction, […] of 50 mM CaCl2 in assay buffer was added to each of the wells of the plate, excepting three, which were used as background signal baseline controls. Substrate hydrolysis was monitored every 5 minutes for a total of 30 minutes using a Fluoroskan II fluorescence plate reader. […] Inhibition of calpain I activity was calculated as the percent decrease in the rate of substrate hydrolysis in the presence of inhibitor relative to the rate in its absence. Comparison between the inhibited and control rates was made within the linear range for substrate hydrolysis. For screening, compounds were tested at […]. […] The results were plotted as percent inhibition versus log inhibitor concentration, and the IC50 was calculated from linear regression of the data.

As usually defined, the IC50 is the midpoint of a concentration-inhibition curve.

Read-outs that look alike come from different tables or passages of the source.

As to `COc1cc2c(cc1OC)S(=O)(=O)NC(C(=O)N[C@H](C=O)Cc1ccccc1)C2` (single isomer, unassigned) [Cpd 12c, N-(3,4-Dihydro-6,7-dimethoxy-2H-1,2-benzothiazine-3-carbonyl)-L-phenylalaninal 1,1-dioxide], the concentration for half-maximal inhibition (IC50) (Table II) is approximately 800 nM.

As for `CCCCNC(=O)C(=O)[C@H](Cc1ccccc1)NC(=O)C1Cc2cc3c(cc2S(=O)(=O)N1)OCCO3` (stereo partly drawn) [Cpd 14AD, N-Butyl-3-(3,4-Dihydro-6,7-ethylenedioxy-2H-1,2-benzothiazine-3-carboxamido)-2-oxo-3-(S)-benzylpropanamide 1,1-dioxide], for the setting “Table III”, the IC50 is approximately 200 nM. Same read-out and setting: with `CCN1C(C(=O)N[C@@H](Cc2ccccc2)C(=O)C(=O)NCCCNS(=O)(=O)c2ccc(Cl)c(Cl)c2)Cc2cc3c(cc2S1(=O)=O)OCCO3` (stereo partly drawn) [Cpd 14W, 3-((3,4-Dihydro-6,7-ethylenedioxy-2-ethyl-2H-1,2-benzothiazine-3-carbonyl)amino)-3-(S)-benzyl-2-oxo-N-(3-(3,4-dichlorobenzenesulfonylamino)propyl)propanamide 1,1-dioxide] the figure was 56 nM.

As to `CN1C(C(=O)N[C@H](C=O)Cc2ccccc2)Cc2ccccc2S1(=O)=O` (stereo partly drawn) [Cpd 12i, N-(3,4-Dihydro-2-methyl-2H-1,2-benzothiazine-3-carbonyl)-L-phenylalaninal 1,1-dioxide], under “Table II”, the IC50 came out at 28 nM.

The values above are taken from patent US5952328A, “Benzothiazo and related heterocyclic group-containing cysteine and serine protease inhibitors” (Cephalon, Inc., priority 1997, dated 1999).
